Experimental findings from PubChem BioAssay AID328 (DTP/NCI, 2004) are described below.

This assay concerns BDF1 mice, P388 leukemia ip, median survival T/C. Kind of assay: NCI In Vivo Anticancer Drug Screen. Data for tumor model P388 Leukemia (intraperitoneal) in B6D2F1 (BDF1) mice. Particulars: endpoint: median survival time, higher = longer survival. The method in brief:
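Transplantable tumour in mice; compound vs vehicle dosing; survival scored; ratio of treated to control reported.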

The mark [1] stands for this setting: dose: 100.0 mg/kg/injection, schedule: Q01DX009 (ip), vehicle: Klucel (hydroxypropylcellulose) (HPC).
[2] abbreviates: dose: 100.0 mg/kg/injection, schedule: Q04DX003 (ip), vehicle: Klucel (hydroxypropylcellulose) (HPC).
[3] abbreviates: dose: 200.0 mg/kg/injection, schedule: Q04DX003 (ip), vehicle: Klucel (hydroxypropylcellulose) (HPC).
Setting [4] is: dose: 25.0 mg/kg/injection, schedule: Q04DX003 (ip), vehicle: saline with Tween-80.
[5] abbreviates: dose: 50.0 mg/kg/injection, schedule: Q04DX003 (ip), vehicle: saline with Tween-80.
[6] abbreviates: dose: 100.0 mg/kg/injection, schedule: Q04DX003 (ip), vehicle: saline with Tween-80.

“And” between values parts separate entries of the source, which are not always exact repeats. Equal entries are not always repeated. Toxic doses and inconclusive results are not listed.

As for `CC(=O)Oc1ccc[nH]c1=O`, the T/C (dose: 200.0 mg/kg/injection, schedule: Q01DX009 (ip), vehicle: saline) was 100 % of control; the T/C (dose: 264.0 mg/kg/injection, schedule: Q01DX009 (ip), vehicle: saline with Tween-80) was 115 % of control; the T/C (dose: 400.0 mg/kg/injection, schedule: Q01DX009 (ip), vehicle: saline) was 150 % of control; the T/C (dose: 600.0 mg/kg/injection, schedule: Q01DX009 (ip), vehicle: saline with Tween-80) was 115 % of control; the T/C (dose: 600.0 mg/kg/injection, schedule: Q01DX009 (ip), vehicle: saline) was 95 % of control.

As to `CC1(C)CCSC(/C=C/c2ccccc2)=N1`, the T/C by setting is: (dose: 50.0 mg/kg/injection, schedule: Q01DX009 (ip), vehicle: Klucel (hydroxypropylcellulose) (HPC)) 103 % of control; under setting [1], 121 % of control.

`C[C@]12CCC(=O)C=C1CC[C@H]1[C@@H]3CCC(=O)O[C@@]3(C)CC(=O)[C@@]12F`: the T/C is 111 % of control under setting [1]; 90 % of control under setting [2]; 96 % of control (dose: 200.0 mg/kg/injection, schedule: Q01DX009 (ip), vehicle: Klucel (hydroxypropylcellulose) (HPC)); 109 % of control under setting [3]; 100 % of control (dose: 400.0 mg/kg/injection, schedule: Q01DX009 (ip), vehicle: Klucel (hydroxypropylcellulose) (HPC)); 86 % of control (dose: 400.0 mg/kg/injection, schedule: Q04DX003 (ip), vehicle: Klucel (hydroxypropylcellulose) (HPC)).

Regarding `COC(=O)/C(C#N)=C(\C)CCC=C(C)C`, the T/C is 95 % of control under setting [4], 105 % of control under setting [5] and 87 % of control under setting [6].

Turning to `S=c1[nH]nc2n1NC(c1ccoc1)=NN2`, the T/C was 122 % of control under setting [4], 100 % of control under setting [5] and 113 % of control under setting [6].

In the case of `CCOC(=O)C(I)CC` (configuration not stated), the T/C is, setting by setting: (dose: 6.25 mg/kg/injection, schedule: Q04DX003 (ip), vehicle: water) 100 % of control; (dose: 12.5 mg/kg/injection, schedule: Q01DX009 (ip), vehicle: water) 105 % of control; (dose: 12.5 mg/kg/injection, schedule: Q04DX003 (ip), vehicle: water) 100 % of control; (dose: 25.0 mg/kg/injection, schedule: Q01DX009 (ip), vehicle: water) 98 % of control; (dose: 25.0 mg/kg/injection, schedule: Q04DX003 (ip), vehicle: water) 105 % of control; (dose: 50.0 mg/kg/injection, schedule: Q01DX009 (ip), vehicle: water) 107 % of control. In addition, the T/C is 101 % of control (dose: 50.0 mg/kg/injection, schedule: Q04DX003 (ip), vehicle: water); 116 % of control (dose: 100.0 mg/kg/injection, schedule: Q01DX009 (ip), vehicle: water); 96 % of control (dose: 100.0 mg/kg/injection, schedule: Q04DX003 (ip), vehicle: water); 123 % of control (dose: 200.0 mg/kg/injection, schedule: Q01DX009 (ip), vehicle: water); 98 % of control and 104 % of control (dose: 200.0 mg/kg/injection, schedule: Q04DX003 (ip), vehicle: water); 110 % of control (dose: 300.0 mg/kg/injection, schedule: Q04DX003 (ip), vehicle: water). Moreover, the T/C (dose: 400.0 mg/kg/injection, schedule: Q04DX003 (ip), vehicle: water) was 104 % of control.

For the compound `Nc1nc(Cl)c(C=O)c(Cl)n1`, under “dose: 50.0 mg/kg/injection, schedule: Q01DX009 (ip), vehicle: saline with Tween-80”, the T/C is 241 % of control.

Consider `CCN(CC)C(=O)C1=NNc2ccc(Cl)cc2C(=O)N1C`, for which the T/C was 100 % of control under setting [6]; 109 % of control (dose: 200.0 mg/kg/injection, schedule: Q04DX003 (ip), vehicle: saline with Tween-80); 97 % of control (dose: 400.0 mg/kg/injection, schedule: Q04DX003 (ip), vehicle: saline with Tween-80).

As for `CCOC(=O)C(C)(C)CN(CC(C)(C)C(=O)OCC)C(C)(C)C`, the T/C is 110 % of control (dose: 50.0 mg/kg/injection, schedule: Q01DX001 (ip), vehicle: saline) and 120 % of control (dose: 100.0 mg/kg/injection, schedule: Q01DX001 (ip), vehicle: saline).

For `O=NN(CCCl)C(=O)N[C@@H]1CCCC[C@H]1NC(=O)N(CCCl)N=O`, the T/C is, setting by setting: (dose: 0.12 mg/kg/injection, schedule: Q04DX003 (ip), vehicle: Klucel (hydroxypropylcellulose) (HPC)) 120 % of control; (dose: 0.18 mg/kg/injection, schedule: Q01DX009 (ip), vehicle: Klucel (hydroxypropylcellulose) (HPC)) 100 % of control; (dose: 0.25 mg/kg/injection, schedule: Q04DX003 (ip), vehicle: Klucel (hydroxypropylcellulose) (HPC)) 100 % of control; (dose: 0.37 mg/kg/injection, schedule: Q01DX009 (ip), vehicle: Klucel (hydroxypropylcellulose) (HPC)) 88 % of control; (dose: 0.5 mg/kg/injection, schedule: Q04DX003 (ip), vehicle: Klucel (hydroxypropylcellulose) (HPC)) 108 % of control; (dose: 0.75 mg/kg/injection, schedule: Q01DX009 (ip), vehicle: Klucel (hydroxypropylcellulose) (HPC)) 88 % of control. Also, the T/C is 150 % of control (dose: 1.0 mg/kg/injection, schedule: Q04DX003 (ip), vehicle: Klucel (hydroxypropylcellulose) (HPC)); 88 % of control (dose: 1.5 mg/kg/injection, schedule: Q01DX009 (ip), vehicle: Klucel (hydroxypropylcellulose) (HPC)); 113 % of control (dose: 2.0 mg/kg/injection, schedule: Q04DX003 (ip), vehicle: Klucel (hydroxypropylcellulose) (HPC)); 109 % of control (dose: 3.0 mg/kg/injection, schedule: Q04DX003 (ip), vehicle: Klucel (hydroxypropylcellulose) (HPC)); 191 % of control (dose: 4.5 mg/kg/injection, schedule: Q01DX009 (ip), vehicle: Klucel (hydroxypropylcellulose) (HPC)); 172 % of control (dose: 6.0 mg/kg/injection, schedule: Q01DX009 (ip), vehicle: Klucel (hydroxypropylcellulose) (HPC)). Also, the T/C (dose: 6.0 mg/kg/injection, schedule: Q04DX003 (ip), vehicle: Klucel (hydroxypropylcellulose) (HPC)) was 150 % of control and 162 % of control and 172 % of control; the T/C (dose: 7.0 mg/kg/injection, schedule: Q01DX009 (ip), vehicle: Klucel (hydroxypropylcellulose) (HPC)) is 233 % of control; the T/C (dose: 9.0 mg/kg/injection, schedule: Q04DX003 (ip), vehicle: Klucel (hydroxypropylcellulose) (HPC)) was 213 % of control; the T/C (dose: 11.0 mg/kg/injection, schedule: Q01DX009 (ip), vehicle: Klucel (hydroxypropylcellulose) (HPC)) was 237 % of control and 250 % of control; the T/C (dose: 12.0 mg/kg/injection, schedule: Q01DX009 (ip), vehicle: Klucel (hydroxypropylcellulose) (HPC)) is 250 % of control; the T/C (dose: 12.0 mg/kg/injection, schedule: Q04DX003 (ip), vehicle: Klucel (hydroxypropylcellulose) (HPC)) was 159 % of control. The T/C reads like this: (dose: 12.5 mg/kg/injection, schedule: Q01DX009 (ip), vehicle: Klucel (hydroxypropylcellulose) (HPC)) 155 % of control; (dose: 13.0 mg/kg/injection, schedule: Q04DX003 (ip), vehicle: Klucel (hydroxypropylcellulose) (HPC)) 250 % of control and 204 % of control; (dose: 16.5 mg/kg/injection, schedule: Q01DX009 (ip), vehicle: Klucel (hydroxypropylcellulose) (HPC)) 250 % of control; (dose: 20.0 mg/kg/injection, schedule: Q04DX003 (ip), vehicle: Klucel (hydroxypropylcellulose) (HPC)) 260 % of control and 272 % of control; (dose: 25.0 mg/kg/injection, schedule: Q01DX009 (ip), vehicle: Klucel (hydroxypropylcellulose) (HPC)) 272 % of control and 280 % of control; (dose: 25.0 mg/kg/injection, schedule: Q01DX009 (ip), vehicle: saline) 250 % of control. In addition, the T/C (dose: 25.0 mg/kg/injection, schedule: Q04DX003 (ip), vehicle: Klucel (hydroxypropylcellulose) (HPC)) is 222 % of control; the T/C (dose: 30.0 mg/kg/injection, schedule: Q04DX003 (ip), vehicle: Klucel (hydroxypropylcellulose) (HPC)) was 250 % of control and 272 % of control and 300 % of control; the T/C (dose: 35.0 mg/kg/injection, schedule: Q01DX009 (ip), vehicle: saline) was 91 % of control; the T/C (dose: 40.0 mg/kg/injection, schedule: Q04DX003 (ip), vehicle: Klucel (hydroxypropylcellulose) (HPC)) was 300 % of control; the T/C (dose: 44.0 mg/kg/injection, schedule: Q04DX003 (ip), vehicle: Klucel (hydroxypropylcellulose) (HPC)) is 250 % of control; the T/C (dose: 50.0 mg/kg/injection, schedule: Q04DX003 (ip), vehicle: Klucel (hydroxypropylcellulose) (HPC)) was 272 % of control. Moreover, the T/C was 241 % of control and 250 % of control and 300 % of control (dose: 67.0 mg/kg/injection, schedule: Q04DX003 (ip), vehicle: Klucel (hydroxypropylcellulose) (HPC)); 260 % of control and 150 % of control and 195 % of control under setting [2]; 95 % of control (dose: 150.0 mg/kg/injection, schedule: Q04DX003 (ip), vehicle: Klucel (hydroxypropylcellulose) (HPC)); 86 % of control and 122 % of control under setting [3].
